According to patent US20210189346A1, “METHOD OF CULTURING PROLIFERATIVE HEPATOCYTES” (INSERM (INSTITUT NATIONAL DE LA SANTÉ ET DE LA RECHERCHE …, priority 2018, published 2021):
Read-outs that look alike come from different tables or passages of the source.

Columns and labels:
[1] = system: CYP1A2; assay type: cell-based, human; conditions: 3-MC 5 μM for 24 h; 3D versus control 2D culture
Description: Then, total RNA was extracted from cell pellets using NucleoSpin RNA (Macherey-Nagel, Hoerdt, France) and the concentration of total RNA was measured with a NanoDrop ND-1000 (NanoDrop Technologies, Wilmington, USA). Total RNA was used for cDNA synthesis using the High Capacity cDNA reverse transcription kit (Applied Biosystems, Saint Aubin, France). Real-time PCR for all genes was performed using SYBR green technology with the Power SYBR Green PCR master mix (Applied Biosystems, Saint Aubin, France) and the CFX384 Real-Time System (Biorad) according to the manufacturer's recommendations. Primer sequences used are described in Tables 2 and 3 below.
The amplification curves were analyzed with the Biorad CFX Manager software using the comparative regression method. GAPDH was used for the normalization of expression data. The relative amount of measured mRNA in samples was determined using the 2-ΔΔCT method where ΔΔCT=(CTtarget-CTGAPDH)sample−(CTtarget-CTGAPDH)calibrator. Final results were expressed as the n-fold differences in target gene expression in tested samples when compared with the mean expression value of calibrator. Values are given for one experiment representative of at least three independent experiments.

[2] = system: CYP 1A1/2; conditions: human
[3] = system: primary human hepatocytes (PHH)
Description: PHH either in control 2D culture (2D) or in 3D culture established according to the method of the invention in a collagen matrix (3D) were incubated with the indicated genotoxic drugs at the indicated concentrations (see Table 7) from the start of the culture. After 9 days, PHH were extracted from the collagen matrix by the action of purified collagenase. The cell pellets were resuspended in 0.5% low-melting point agarose and laid on conventional microscope slides covered with regular agarose. The electrophoresis migration was processed and after staining with propidium iodide, at least 100 images were acquired using a fluorescence microscope. The images were analyzed using the Comet Assay IV software. The extent of DNA damage in individual cells was evaluated by the percentage of tail DNA.

[4] = system: primary human hepatocytes (PHH); assay type: cell-based
Description: After 9 days, immuno-histochemical staining was performed as described hereinabove to detect the presence of phosphorylated H2AX (i.e., γH2Ax), a marker of DNA double-strand break, in the PHH.

[5] = system: primary human hepatocytes (PHH); remark: listed apart in the source
[6] = system: MAPK MEK1/2-ERK1/2 pathway

Cc1ccc2cc3c(ccc4ccccc43)c3c2c1CC3 [3-MC, 3-methylcholanthrene]
CYP1A2 mRNA expression after 3-MC induction [1]: significantly increased CYP1A2 mRNA expression in PHH in 3D culture as compared to that in PHH in control 2D culture
induction of CYP1A (EROD) activity [2]: potentialization of 3-methylcholanthrene (3-MC) induction of CYP1A (EROD) activity was only observed in PHH in 3D culture

Nc1ccc(-c2ccccc2)cc1 [4-ABP, 4-aminobiphenyl]
levels of DNA damages in 3D culture, in words [3]: higher (about the double) and dose-dependent levels of DNA damages
levels of DNA damages (percentage of tail DNA) ([3]; human): about 3%
PHH with DNA damages (γH2Ax positive cells) ([4]; human): about 50%

N#CC(=C(/N)Sc1ccccc1N)/C(C#N)=C(\N)Sc1ccccc1N [U0126]
Ki67 / cyclin D1 positive cells after transient MEK/ERK inhibition [5]: No positive cells could be detected
ERK1/2 activity (ERK1/2 phosphorylation) [6]: strong inhibition of ERK1/2 activity

aflatoxin B1 [AFB1]
PHH with DNA damages (γH2Ax positive cells) [4]: about 35%
